In the test the target is T1, Platelet-activating factor acetylhydrolase IB subunit alpha2 (Mus musculus, UniProt Q61206).
T1 sequence (Q61206 whole entry): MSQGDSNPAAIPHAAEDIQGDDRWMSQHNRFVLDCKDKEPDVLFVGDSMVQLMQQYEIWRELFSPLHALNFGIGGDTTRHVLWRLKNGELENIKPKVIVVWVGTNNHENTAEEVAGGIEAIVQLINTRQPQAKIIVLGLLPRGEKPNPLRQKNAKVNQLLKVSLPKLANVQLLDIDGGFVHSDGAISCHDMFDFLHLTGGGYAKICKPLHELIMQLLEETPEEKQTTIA
Description: Competitive ABPP Assays in Proteomes with FP-alkyne. Conditions: pH 7.5. As for the experimental part: Total protein concentrations for each fraction were adjusted to 1 mg/mL in PBS (50 μL total reaction volume). Samples were then subjected to click chemistry by the addition of 1 mM CuSO4 (1 μL of a 50x stock in DMSO), followed by TBTA (3 μL of a 17x stock in 4:1 t-butanol:DMSO), then 25 μM Rh-N3 (1 μL of a 50x stock in DMSO) and 1 mM TCEP (1 μL of a 50x stock in DMSO). Reactions were vortexed, incubated for 1 h at 25 °C, and quenched with 4x SDS-PAGE loading buffer and analyzed by in-gel fluorescence scanning.

`Cc1ccc(C2C(C(=O)O)=CCC(c3ccc(C(C)C)cc3)N2S(=O)(=O)c2ccc(C)cc2)cc1` (stereo unspecified) [1-(4-methylbenzenesulfonyl)-2-(4-methylphenyl)-6-[4-(propan-2-yl)phenyl]-1,2,5,6-tetrahydropyridine-3-carboxylic acid (F5)] yielded an IC50 of 4.5 µM.
In the case of `Cc1ccc(C2CC=C(C(=O)O)C(c3cccc(Cl)c3)N2S(=O)(=O)c2ccc(C)cc2)cc1` (stereo unspecified) [2-(3-chlorophenyl)-1-(4-methylbenzenesulfonyl)-6-(4-methylphenyl)-1,2,5,6-tetrahydropyridine-3-carboxylic acid (J13)] it was 8.2 µM.
The figure for `CCc1ccc(C2CC=C(C(=O)O)C(c3cccc(Cl)c3)N2S(=O)(=O)c2ccc(C)cc2)cc1` (stereo unspecified) [2-(3-chlorophenyl)-6-(4-ethylphenyl)-1-(4-methylbenzenesulfonyl)-1,2,5,6-tetrahydropyridine-3-carboxylic acid (J8)] is 9.4 µM.
The figure for `COCCNC(=O)C1=CCC(c2ccc(C)cc2)N(S(=O)(=O)c2ccc(C)cc2)C1c1ccc(C(C)(C)C)cc1` (stereo unspecified) [2-(4-(tert-butyl)phenyl)-N-(2-methoxyethyl)-6-(p-tolyl)-1-tosyl-1,2,5,6-tetrahydropyridine-3-carboxamide (JW1041)] is 1.7 µM; for `Cc1ccc(C2CC=C(C(=O)NC3CCCCC3)C(c3ccc(C(C)(C)C)cc3)N2S(=O)(=O)c2ccc(C)cc2)cc1` (stereo unspecified) [2-(4-(tert-butyl)phenyl)-N-cyclohexyl-6-(p-tolyl)-1-tosyl-1,2,5,6-tetrahydropyridine-3-carboxamide (JW1039)] it is > 10 µM; for `Cc1ccc(C2CC=C(C(=O)NC3CC3)C(c3ccc(C(C)(C)C)cc3)N2S(=O)(=O)c2ccc(C)cc2)cc1` (stereo unspecified) [2-(4-(tert-butyl)phenyl)-N-cyclopropyl-6-(p-tolyl)-1-tosyl-1,2,5,6-tetrahydropyridine-3-carboxamide (JW1038)] it is 9.3 µM.
On to `CNC(=O)C1=CCC(c2ccc(C)cc2)N(S(=O)(=O)c2ccc(C)cc2)C1c1ccc(C(C)(C)C)cc1` (stereo unspecified) [2-(4-(tert-butyl)phenyl)-N-methyl-6-(p-tolyl)-1-tosyl-1,2,5,6-tetrahydropyridine-3-carboxamide (JW1036)], for which the IC50 was > 10 µM.
`Cc1ccc(S(=O)(=O)N2C(c3ccc(Cl)c(Cl)c3)CC=C(C(=O)O)C2c2ccc(Br)cc2)cc1` (stereo unspecified) [2-(4-bromophenyl)-6-(3,4-dichlorophenyl)-1-(4-methylbenzenesulfonyl)-1,2,5,6-tetrahydropyridine-3-carboxylic acid (K9)] registered an IC50 of 1.4 µM.
In the case of `Cc1ccc(S(=O)(=O)N2C(c3ccc(Cl)cc3)CC=C(C(=O)O)C2c2ccc(Br)cc2)cc1` (stereo unspecified) [2-(4-bromophenyl)-6-(4-chlorophenyl)-1-(4-methylbenzenesulfonyl)-1,2,5,6-tetrahydropyridine-3-carboxylic acid (H4)] it was 1.1 µM; in that of `Cc1ccc(C2CC=C(C(=O)O)C(c3ccc(F)cc3)N2S(=O)(=O)c2ccc(C)cc2)cc1` (stereo unspecified) [2-(4-fluorophenyl)-1-(4-methylbenzenesulfonyl)-6-(4-methylphenyl)-1,2,5,6-tetrahydropyridine-3-carboxylic acid (O8)], 2 µM.
Take `Cc1ccc(S(=O)(=O)N2C(c3ccc(C(C)C)cc3)CC=C(C(=O)O)C2c2ccc(F)cc2)cc1` (stereo unspecified) [2-(4-fluorophenyl)-1-(4-methylbenzenesulfonyl)-6-[4-(propan-2-yl)phenyl]-1,2,5,6-tetrahydropyridine-3-carboxylic acid (B6)]: the IC50 was 1.1 µM.
In the case of `Cc1ccc(C2CC=C(C(=O)O)C(c3ccc(C(C)(C)C)cc3)N2S(=O)(=O)c2ccc(C)cc2)cc1` (stereo unspecified) [2-(4-tert-butylphenyl)-1-(4-methylbenzenesulfonyl)-6-(4-methylphenyl)-1,2,5,6-tetrahydropyridine-3-carboxylic acid (P11)] it was 0.8 µM; in that of `Cc1ccc(C2CC=C(CBr)C(c3ccc(C(C)(C)C)cc3)N2S(=O)(=O)c2ccc(C)cc2)cc1` (stereo unspecified) [5-(bromomethyl)-6-(4-(tert-butyl)phenyl)-2-(p-tolyl)-1-tosyl-1,2,3,6-tetrahydropyridine (JW1058)], 4.6 µM.
The figure for `COC(=O)C1=CCC(c2ccc(C)cc2)N(S(=O)(=O)c2ccc(C)cc2)C1c1ccc(C(C)(C)C)cc1` (stereo unspecified) [Methyl-2-(4-(tert-butyl)phenyl)-6-(p-tolyl)-1-tosyl-1,2,5,6-tetrahydropyridine-3-carboxylate (JW1068)] is > 10 µM; for `Cc1ccc(C2CC=C(CNC3CC3)C(c3ccc(C(C)(C)C)cc3)N2S(=O)(=O)c2ccc(C)cc2)cc1` (stereo unspecified) [N-((2-(4-(tert-butyl)phenyl)-6-(p-tolyl)-1-tosyl-1,2,5,6-tetrahydropyridin-3-yl)methyl)cyclopropanamine (JW1061)] it is 7.6 µM.
`C=CCNC(=O)C1=CCC(c2ccc(C)cc2)N(S(=O)(=O)c2ccc(C)cc2)C1c1ccc(C(C)(C)C)cc1` (stereo unspecified) [N-allyl-2-(4-(tert-butyl)phenyl)-6-(p-tolyl)-1-tosyl-1,2,5,6-tetrahydropyridine-3-carboxamide (JW1043)] displayed an IC50 of 7.5 µM.

As a reminder, the IC50 is the concentration that gives 50% inhibition. Low values mean greater potency, high ones weaker potency.

Values taken from BindingDB's records for doi:10.1021/cb500893q (University of California Berkeley, 2015).
